The values below are quoted from earlier work in patent US20160015722A1, “TREATMENT OF ENDOMETRIOSIS” (priority 2014, published 2016).

In this series the test system is FSH (Follicle Stimulating Hormone) and LH (Leutinizing Hormone) release from the pituitary. The following applies: for FSH and LH release from the pituitary gland: previous hormonal treatments of endometriosis.

For `C[C@]12CC[C@H]3[C@@H](CCC4=CC(=O)CC[C@@H]43)[C@@H]1CC[C@@H]2O` [Nandrolone, nandrolone], the “FSH and LH release from the pituitary” value (nandrolone used alone) is “suppresses”.

Take `C#C[C@]1(O)CC[C@H]2[C@@H]3CCC4=Cc5oncc5C[C@]4(C)[C@H]3CC[C@@]21C` [danazol]: the “FSH and LH release from the pituitary gland” value is reported as “suppress”.

Turning to luprolide acetate, the “FSH and LH release from the pituitary gland” value is given as “suppress”.
